Reference: patent US20260355196A1, “INHIBITORS AND DEGRADERS OF PIP4K PROTEIN” (Larkspur Biosciences, Inc., priority 2023, published 2026)

target: T1, PIP4K2C (Homo sapiens, UniProt Q8TBX8); experiment: Enzyme Binding Assay (KINOMEscan): active site-directed competition binding to an immobilized ligand; design: purchased Eurofins DiscoverX, San Diego, CA 87-0007-1094; settings: 11-point dose response, duplicate, top concentration 5 micromolar; read-out: Pip4k2c Kd: IC50
T1 sequence (Q8TBX8 1-421): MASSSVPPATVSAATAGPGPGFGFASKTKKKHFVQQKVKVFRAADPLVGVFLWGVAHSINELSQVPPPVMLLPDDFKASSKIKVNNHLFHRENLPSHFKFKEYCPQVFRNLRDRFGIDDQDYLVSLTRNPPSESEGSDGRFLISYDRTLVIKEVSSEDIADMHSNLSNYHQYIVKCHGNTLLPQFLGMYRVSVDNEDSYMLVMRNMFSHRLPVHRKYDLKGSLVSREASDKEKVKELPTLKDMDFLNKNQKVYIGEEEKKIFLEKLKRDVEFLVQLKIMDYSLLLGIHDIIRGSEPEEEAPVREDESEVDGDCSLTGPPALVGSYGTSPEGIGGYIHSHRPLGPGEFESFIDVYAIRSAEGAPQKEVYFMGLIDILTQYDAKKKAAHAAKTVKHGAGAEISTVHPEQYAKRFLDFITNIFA
Experimental: Example B-1: Enzyme Binding Assays (KINOMEscan)
PIP4K2C binding constants disclosed herein were determined using the proprietary Human PIP4K2C binding assay (Catalog number 87-0007-1094, Eurofins DiscoverX, San Diego, CA). This assay measures active site-directed competition binding to an immobilized ligand (see https://doi.org/10.1038/nbt1068, herein incorporated by reference in its entirety). Experiments were conducted using an 11-point dose response curve, in duplicate, with a top starting concentration of 5 micromolar; the Levenberg-Marquardt algorithm was used to fit a Hill equation to dose-response data to calculate IC50 values (see Table 5).

SMILES | IC50
O=C1CCC(Nc2ncc(Cl)c(-c3cccc(-c4ccccc4)c3)n2)CN1 (centres unmarked) [Compound 17, 5-((4-([1,1′-biphenyl]-3-yl)-5-chloropyrimidin-2-yl)amino)piperidin-2-one] | < 500 nM
CC(=O)N1CCC[C@H](Nc2ncc(Cl)c(-c3cccc(-c4ccccc4)c3)n2)C1 [Compound 18, (S)-1-(3-((4-([1,1′-biphenyl]-3-yl)-5-chloropyrimidin-2-yl)amino)piperidin-1-yl)ethan-1-one] | < 500 nM
CC(=O)N1CCC[C@H](Nc2ncc(Cl)c(N3CCC(c4ccccc4)C3)n2)C1 (stereo partly drawn) [Compound 20, 1-((3S)-3-((5-chloro-4-(3-phenylpyrrolidin-1-yl)pyrimidin-2-yl)amino)piperidin-1-yl)ethan-1-one] | 1000 to 5000 nM
CC(=O)N1CCC(Nc2ncc(Cl)c(-c3cccc(-c4ccccc4)c3)n2)CC1 [Compound 23, 1-(4-((4-([1,1′-biphenyl]-3-yl)-5-chloropyrimidin-2-yl)amino)piperidin-1-yl)ethan-1-one] | < 500 nM
CC(=O)N1CCC(Nc2ncc(Cl)c(-c3ccc(F)cc3)n2)CC1 [Compound 27, 1-(4-((5-chloro-4-(4-fluorophenyl)pyrimidin-2-yl)amino)piperidin-1-yl)ethan-1-one] | 500 to 1000 nM
CC(=O)N1CCC[C@H](Nc2ncc(Cl)c(N3CCC(c4ccccn4)C3)n2)C1 (stereo partly drawn) [Compound 29, 1-((3S)-3-((5-chloro-4-(3-(pyridin-2-yl)pyrrolidin-1-yl)pyrimidin-2-yl)amino)piperidin-1-yl)ethan-1-one] | 1000 to 5000 nM
CC(=O)N[C@H]1CC[C@H](Nc2ncc(Cl)c(-c3cccc(-c4ccccc4)c3)n2)CC1 [Compound 32, N-(trans-4-((4-([1,1′-biphenyl]-3-yl)-5-chloropyrimidin-2-yl)amino)cyclohexyl)acetamide] | < 500 nM
CC(=O)N1CCC[C@H](Nc2ncc(Cl)c(N3CCCC(c4ccccc4)C3)n2)C1 (stereo partly drawn) [Compound 35, 1-((3S)-3-((5-chloro-4-(3-phenylpiperidin-1-yl)pyrimidin-2-yl)amino)piperidin-1-yl) ethan-1-one] | < 500 nM
CC(=O)N1CCC[C@H](Nc2ncc(Cl)c(-c3cccc(C4CCCCC4)c3)n2)C1 [Compound 39, (S)-1-(3-((5-chloro-4-(3-cyclohexylphenyl)pyrimidin-2-yl)amino)piperidin-1-yl)ethan-1-one] | < 500 nM
CNC(=O)[C@H]1CC[C@H](Nc2ncc(Cl)c(-c3cccc(-c4cccc(=O)[nH]4)c3)n2)CC1 [Compound 92, trans-(1r,4r)-4-((5-chloro-4-(3-(6-oxo-1,6-dihydropyridin-2-yl)phenyl)pyrimidin-2-yl)amino)-N-methylcyclohexane-1-carboxamide] | < 500 nM
CNC(=O)[C@H]1CC[C@H](Nc2ncc(Cl)c(-c3ccc(=O)n(-c4ccc(F)cc4)c3)n2)CC1 [Compound 95, trans-(1r,4r)-4-((5-chloro-4-(1-(4-fluorophenyl)-6-oxo-1,6-dihydropyridin-3-yl)pyrimidin-2-yl)amino)-N-methylcyclohexane-1-carboxamide] | 1000 to 5000 nM
CC(=O)N[C@H]1CC[C@@H](Nc2ncc(Cl)c(-c3cnn(C4CC4)c3)n2)CC1 [Compound 99, cis-N-((1s,4s)-4-((5-chloro-4-(1-cyclopropyl-1H-pyrazol-4-yl)pyrimidin-2-yl)amino)cyclohexyl)acetamide] | 500 to 1000 nM
CC(=O)N[C@H]1CC[C@H](Nc2ncc(Cl)c(C3CCCN(C(=O)C4CC4)C3)n2)CC1 (stereo partly drawn) [Compound 100, trans-N-(4-((5-chloro-4-(1-(cyclopropanecarbonyl)piperidin-3-yl)pyrimidin-2-yl)amino)cyclohexyl)acetamide] | < 500 nM
CNC(=O)[C@H]1CC[C@H](Nc2ncc(Cl)c(-c3cccc(-c4ccc(F)cc4)c3)n2)CC1 [Compound 101, trans-(1r,4r)-4-((5-chloro-4-(4′-fluoro-[1,1′-biphenyl]-3-yl)pyrimidin-2-yl)amino)-N-methylcyclohexane-1-carboxamide] | < 500 nM
CC(=O)N[C@H]1CC[C@H](Nc2ncc(Cl)c(-c3cccc(-n4ccccc4=O)c3)n2)CC1 [Compound 102, trans-N-((1r,4r)-4-((5-chloro-4-(3-(2-oxopyridin-1 (2H)-yl)phenyl)pyrimidin-2-yl)amino)cyclohexyl)acetamide] | < 500 nM

More lines, now with the values ahead:

IC50 | SMILES
< 500 nM | CN1CCC(Nc2ncc(Cl)c(-c3cccc(-c4ccccc4)c3)n2)CC1=O (centres unmarked) [Compound 16, 4-((4-([1,1′-biphenyl]-3-yl)-5-chloropyrimidin-2-yl)amino)-1-methylpiperidin-2-one]
< 500 nM | NC(=O)[C@H]1CC[C@H](Nc2ncc(Cl)c(-c3cccc(-c4ccccc4)c3)n2)CC1 [Compound 19, trans-4-((4-([1,1′-biphenyl]-3-yl)-5-chloropyrimidin-2-yl)amino)cyclohexane-1-carboxamide]
< 500 nM | CC(=O)N1CCCC(Nc2ncc(Cl)c(-c3cccc(-c4ccccc4)c3)n2)C1 (centres unmarked) [Compound 21, 1-(3-((4-([1,1′-biphenyl]-3-yl)-5-chloropyrimidin-2-yl)amino)piperidin-1-yl)ethan-1-one]
< 500 nM | NC(=O)C1CCCC(Nc2ncc(Cl)c(-c3cccc(-c4ccccc4)c3)n2)C1 (centres unmarked) [Compound 22, 3-((4-([1,1′-biphenyl]-3-yl)-5-chloropyrimidin-2-yl)amino)cyclohexane-1-carboxamide]
1000 to 5000 nM | CC(=O)N1CCC(Nc2ncc(Cl)c(N3CCCCC3)n2)CC1 [Compound 24, 1-(4-((5-chloro-4-(piperidin-1-yl)pyrimidin-2-yl)amino)piperidin-1-yl)ethan-1-one]
500 to 1000 nM | NC(=O)[C@H]1CC[C@@H](Nc2ncc(Cl)c(-c3ccc(F)cc3)n2)CC1 [Compound 25, cis-4-((5-chloro-4-(4-fluorophenyl)pyrimidin-2-yl)amino)cyclohexane-1-carboxamide]
500 to 1000 nM | CC(=O)N1CCCC(Nc2ncc(Cl)c(-c3ccc(F)cc3)n2)C1 (centres unmarked) [Compound 26, 1-(3-((5-chloro-4-(4-fluorophenyl)pyrimidin-2-yl)amino)piperidin-1-yl)ethan-1-one]
< 500 nM | CC(=O)N1CCC(Nc2ncc(Cl)c(C3CCN(c4ccccc4)C3)n2)CC1 (centres unmarked) [Compound 30, 1-(4-((5-chloro-4-(1-phenylpyrrolidin-3-yl)pyrimidin-2-yl)amino)piperidin-1-yl)ethan-1-one]
500 to 1000 nM | CC(=O)N[C@H]1CC[C@@H](Nc2ncc(Cl)c(-c3cccc(-c4ccccc4)c3)n2)CC1 [Compound 31, N-(cis-4-((4-([1,1′-biphenyl]-3-yl)-5-chloropyrimidin-2-yl)amino)cyclohexyl)acetamide]
< 500 nM | CC(=O)N1CCC[C@H](Nc2ncc(Cl)c(-c3cccc(N4CCCCC4)c3)n2)C1 [Compound 37, (S)-1-(3-((5-chloro-4-(3-(piperidin-1-yl)phenyl)pyrimidin-2-yl)amino)piperidin-1-yl)ethan-1-one]
< 500 nM | NC(=O)C1CCCC(Nc2ncc(F)c(-c3cccc(-n4ccccc4=O)c3)n2)C1 (centres unmarked) [Compound 40, 3-[[5-fluoro-4-[3-(2-oxo-1-pyridyl)phenyl]pyrimidin-2-yl]amino]cyclohexanecarboxamide]
< 500 nM | CC(=O)N[C@H]1CC[C@@H](Nc2ncc(Cl)c(-c3cccc(-n4ccccc4=O)c3)n2)CC1 [Compound 93, cis-N-((1s,4s)-4-((5-chloro-4-(3-(2-oxopyridin-1 (2H)-yl)phenyl)pyrimidin-2-yl)amino)cyclohexyl)acetamide]
< 500 nM | CNC(=O)[C@H]1C[C@@H](Nc2ncc(Cl)c(-c3cccc(-n4ccccc4=O)c3)n2)C1 [Compound 94, cis-3-((5-chloro-4-(3-(2-oxopyridin-1 (2H)-yl)phenyl)pyrimidin-2-yl)amino)-N-methylcyclobutane-1-carboxamide]
500 to 1000 nM | CC(=O)N[C@H]1CC[C@H](Nc2ncc(Cl)c(-c3ccc(=O)n(C4CC4)c3)n2)CC1 [Compound 96, trans-N-((1r,4r)-4-((5-chloro-4-(1-cyclopropyl-6-oxo-1,6-dihydropyridin-3-yl)pyrimidin-2-yl)amino)cyclohexyl)acetamide]
< 500 nM | CNC(=O)[C@H]1C[C@@H](Nc2ncc(Cl)c(-c3cnn(C4CC4)c3)n2)C1 [Compound 97, cis-3-((5-chloro-4-(1-cyclopropyl-1H-pyrazol-4-yl)pyrimidin-2-yl)amino)-N-methylcyclobutane-1-carboxamide]
< 500 nM | CC(=O)N1CCC(Nc2ncc(Cl)c(-c3cnn(C4CC4)c3)n2)CC1 [Compound 98, 1-(4-((5-chloro-4-(1-cyclopropyl-1H-pyrazol-4-yl)pyrimidin-2-yl)amino)piperidin-1-yl)ethan-1-one]
< 500 nM | CNC(=O)[C@H]1CC[C@H](Nc2ncc(Cl)c(-c3cccc(-n4ccccc4=O)c3)n2)CC1 [Compound 103, trans-(1r,4r)-4-((5-chloro-4-(3-(2-oxopyridin-1 (2H)-yl)phenyl)pyrimidin-2-yl)amino)-N-methylcyclohexane-1-carboxamide]
